Data on 2 compounds can be found in patent publication US10144730B2, “Inhibitors of c-Jun-N-terminal kinase (JNK)” (Dana-Farber Cancer Institute, Inc., priority 2011, dated 2018).

Format in all cases: cell-based
For assay [1], the system named is phosphorylation of STAT3. Briefly: High-throughput microscopy, phosphorylation of STAT3. The settings on record: Homo sapiens, A-375, A375 cells, IL-6 stimulation, read-out: Cellular EC50 pSTAT3. The protocol:
(§1) A375 cells were stimulated with anisomycin (FIGS. 14A and 14C to 14F), IGF-1 (FIG. 14B), IL-6 (FIG. 14G), and TNF-α (FIG. 14H) for sixty minutes. The output of multiple signaling pathways was measured using high throughput microscopy at multiple concentrations of four JNK inhibitors and a control compound specific to each pathway DMSO (FIG. 14A), MK2206 (allosteric Akt inhibitor, Haoyuan Chemexpress Co., Limited. Hirai, et al., 2010) (FIG. 14B), PD0325901 (allosteric Mek inhibitor, Haoyuan Chemexpress Co., Limited. Barrett, et al., 2008) (FIGS. 14C and 14D), SB239063 (ATP-competitive p38 inhibitor, Haoyuan Chemexpress Co., Limited. Underwood et al., 2000) (FIGS. 14E and 14F), KIN001-040 (ATP-competitive JAK1,2,3 inhibitor, Haoyuan Chemexpress Co., Limited. Thompson et al., 2002) (FIG. 14G), and KIN001-208 (IKK inhibitor VIII, Haoyuan Chemexpress Co., Limited., Murata, et al., 2004) (FIG. 14H).
(§2) Cells were plated at 7500 cells/well in 96-well microscopy plates (Corning) in recommended media for 24 hours, and then starved in media lacking serum for 16 hours. Cells were pre-treated for 180 minutes with 10-fold stock solutions of JNK inhibitors and for 10 min with control compounds MK2206, PD0325901, SB239063, KIN040, and KIN208 and treated with 10-fold stock solutions of IGF-1, IL-6, TNF-α (all PeproTech), or anisomycin for 60 minutes. Cells were fixed in 2% paraformaldehyde for 10 min at room temperature and washed with PBS-T (Phosphate Buffered Saline, 0.1% Tween 20). Cells were permeabilized in methanol for 10 min at room temperature, washed with PBS-T, and blocked in Odyssey Blocking Buffer (LI-COR Biosciences) for 1 hour at room temperature. Cells were incubated overnight at 4° C. with antibody specific for Erk1/2(pT202/pY204), Akt(pS473), c-Jun(pS73), pP38(T180/Y182) and pSTAT3(Y705) (Cell Signaling Technology), pRSK1(S380) and pMSK1(S376) (Epitomics), and NF-κB (Santa Cruz Biotechnology) diluted 1:400 in Odyssey Blocking Buffer. Cells were washed three times in PBS-T and incubated with rabbit-specific secondary antibody labeled with Alexa Fluor 647 (Invitrogen) diluted 1:2000 in Odyssey Blocking Buffer. Cells were washed once in PBS-T and once in PBS and incubated in 250 ng/ml Hoechst 33342 (Invitrogen) and 1:1000 Whole Cell Stain (blue; Thermo Scientific) solution. Cells were washed twice with PBS and imaged in an imageWoRx high-throughput microscope (Applied Precision). Data were plotted using DataPflex. […]

Assay [2] concerns c-Jun phosphorylation. Briefly: High throughput microscopy of c-Jun phosphorylation in A375 cells. The note with it: Homo sapiens, A-375.
Assay [3] concerns c-Jun phosphorylation. Briefly: LanthaScreen TR-FRET cell assay for c-Jun phosphorylation in HeLa cells. The note with it: Homo sapiens; Hela cells, TNF-α stimulation; read-out: p-c-Jun EC50 (nM) Hela.
Assay [4] concerns phosphorylation of Erk. Briefly: High-throughput microscopy, phosphorylation of Erk. The note with it: Homo sapiens, A-375, A375 cells, anisomycin stimulation, read-out: Cellular EC50 pErk. The protocol:
as §1, §2

For assay [5], the system named is phosphorylation of Msk1. Briefly: High-throughput microscopy, phosphorylation of Msk1. The note with it: Homo sapiens, A-375, A375 cells, anisomycin stimulation, read-out: Cellular EC50 pMSK1. The protocol:
A375 cells were stimulated with anisomycin (FIGS. 14A and 14C to 14F), IGF-1 (FIG. 14B), IL-6 (FIG. 14G), and TNF-α (FIG. 14H) for sixty minutes.
Cells were fixed in 2% paraformaldehyde for 10 min at room temperature and washed with PBS-T (Phosphate Buffered Saline, 0.1% Tween 20). Cells were permeabilized in methanol for 10 min at room temperature, washed with PBS-T, and blocked in Odyssey Blocking Buffer (LI-COR Biosciences) for 1 hour at room temperature. Cells were incubated overnight at 4° C. with antibody specific for Erk1/2(pT202/pY204), Akt(pS473), c-Jun(pS73), pP38(T180/Y182) and pSTAT3(Y705) (Cell Signaling Technology), pRSK1(S380) and pMSK1(S376) (Epitomics), and NF-κB (Santa Cruz Biotechnology) diluted 1:400 in Odyssey Blocking Buffer. […] Cells were washed twice with PBS and imaged in an imageWoRx high-throughput microscope (Applied Precision). Data were plotted using DataPflex.

Setting [6] is: A375 cells, anisomycin stimulation, high-throughput microscopy, Table 4, read-out: Cellular EC50 pc-Jun.
The mark [7] stands for this setting: A375 cells, anisomycin stimulation, read-out: p-c-Jun EC50 (nM) A375.

Regarding `Cc1cc(NC(=O)c2cccc(NC(=O)/C=C/CN(C)C)c2)ccc1Nc1nccc(-c2cccnc2)n1` [JNK-IN-8], the EC50 in assay [1] was over 10000 nM; in assay [2] (setting [6]) it was 425 nM; in assay [2] (setting [7]) it was 338 nM; in assay [2] (Table 5, A375, read-out: E50/A375) it was 338 nM; in assay [3], 486 nM; in assay [4], over 10000 nM. The EC50 in assay [5] is over 10000 nM.
Consider `CN(C)C/C=C/C(=O)Nc1cccc(C(=O)Nc2ccc(Nc3nccc(/C(C#N)=C4\Nc5ccccc5S4)n3)cc2)c1` [JNK-IN-12], for which the EC50 in assay [1] is over 10000 nM; in assay [2] (setting [6]), 125 nM; in assay [2] (setting [7]) it was 134 nM; in assay [3], 605 nM; in assay [4], over 10000 nM; in assay [5], over 10000 nM.
